Assay results reported in patent publication US9809562B2, “NAT10 modulators for treating or preventing laminopathies, aging and cancer” (CAMBRIDGE ENTERPRISE LIMITED, priority 2014, dated 2017).
Counter-ions that a name gives are not always drawn.

Key:
[1] = target: T1, NAT10 purified from HEK293 cells (Homo sapiens, UniProt Q9H0A0); assay: Circular dichroism spectroscopy of purified NAT10; type: binding; details: titration, 10 μM FLAG-NAT10, concentration-dependent
T1 construct: made in house; host or cells: HEK293 (transient transfection, anti-FLAG immunopurification, elution with triple-Flag peptide)
T1 sequence (Q9H0A0 1-1025): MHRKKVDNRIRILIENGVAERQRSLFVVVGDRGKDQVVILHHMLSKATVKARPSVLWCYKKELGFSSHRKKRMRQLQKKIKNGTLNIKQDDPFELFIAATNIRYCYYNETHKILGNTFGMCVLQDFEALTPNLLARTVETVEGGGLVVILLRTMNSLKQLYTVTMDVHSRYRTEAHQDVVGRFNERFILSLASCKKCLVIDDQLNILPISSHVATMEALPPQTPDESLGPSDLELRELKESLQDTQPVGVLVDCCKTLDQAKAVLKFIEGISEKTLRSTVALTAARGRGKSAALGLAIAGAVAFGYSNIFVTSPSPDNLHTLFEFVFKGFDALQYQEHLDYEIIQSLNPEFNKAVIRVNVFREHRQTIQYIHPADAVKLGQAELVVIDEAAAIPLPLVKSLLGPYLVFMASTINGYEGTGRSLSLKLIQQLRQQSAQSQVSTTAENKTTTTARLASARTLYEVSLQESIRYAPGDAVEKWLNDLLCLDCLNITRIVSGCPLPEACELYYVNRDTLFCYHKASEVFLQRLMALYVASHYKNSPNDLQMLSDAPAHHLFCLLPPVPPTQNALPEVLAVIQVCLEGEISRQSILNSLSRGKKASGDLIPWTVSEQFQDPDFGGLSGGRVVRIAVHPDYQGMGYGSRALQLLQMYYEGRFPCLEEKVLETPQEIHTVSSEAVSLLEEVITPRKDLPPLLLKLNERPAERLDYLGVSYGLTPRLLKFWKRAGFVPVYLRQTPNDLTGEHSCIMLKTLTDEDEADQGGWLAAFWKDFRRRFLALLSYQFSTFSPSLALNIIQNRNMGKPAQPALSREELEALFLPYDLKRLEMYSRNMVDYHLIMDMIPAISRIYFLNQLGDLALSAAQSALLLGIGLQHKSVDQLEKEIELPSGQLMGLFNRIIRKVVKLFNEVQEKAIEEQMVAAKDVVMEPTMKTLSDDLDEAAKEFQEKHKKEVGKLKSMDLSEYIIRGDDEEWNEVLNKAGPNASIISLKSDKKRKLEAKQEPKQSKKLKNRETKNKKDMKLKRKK
Method: HEK293 cells were transiently transfected with NAT10 constructs and harvested after 48 hours in PBS. Cells were lysed for 5 minutes at room temperature in IP lysis buffer (20 mM Tris pH 7.5, 40 mM NaCl, 2 mM MgCl2, 0.5% NP-40) freshly supplemented with 50 U/ml benzonase and EDTA-free protease inhibitor cocktail (Roche). After this initial lysis step, NaCl concentration was adjusted to 450 mM and samples were incubated at 4° C. with rotation. Lysates were clarified by centrifugation (13,200 rpm, 20 minutes at 4° C.), and after recovery NaCl concentration was equilibrated to 150 mM. Lysates were used for immunoprecipitation reaction in IP buffer (25 mM Tris pH 7.5, 150 mM NaCl, 1.5 mM DTT, 10% glycerol, 0.5% NP-40) supplemented with protease inhibitors. Target proteins were captured with anti-FLAG antibody (M2, Sigma-Aldrich) coupled to protein A/G-Dynabeads (Life Sciences). Complexes were washed with IP buffer containing incrementally increasing amounts of NaCl (250 mM, 500 mM, and 1M). Following this, the immuno-complexes were washed in TBS containing gradually decreasing amounts on NaCl (1M, 500 mM, 250 mM, and 150 mM). […]
CD experiments were performed using a Chirascan Circular Dichroism Spectrophotometer (Applied Photophysics, UK). […] CD scans were recorded at 25° C. over the wavelength range of 180 to 350 nm with a 1 second response time, 1 nm pitch and 1.5-nm bandwidth. […]

Lmna^G609G/G609G mice = assay: Tubulin acetylation levels in mice; type: in vivo, mouse; details: treated Lmna^G609G/G609G mice
Method: As Tubulin is a direct substrate of NAT10, Tubulin acetylation levels in cells derived from HGPS patients (left and bottom panel of FIG. 27) were assessed as well as in Lmna^G609G/G609G mice (right panel of FIG. 27).

With Clc1ccc(-c2csc(NN=C3CCCC3)n2)cc1 [Compound 2, 4-(4-Chlorophenyl)-2-(2-cyclopentylidenehydrazinyl)thiazole Hydrochloride Salt] the “NAT10 conformation, absolute molar ellipticity at 210 nm” value [1] was “clear increase in the absolute molar ellipticity” and the tubulin acetylation levels (Lmna^G609G/G609G mice) was “decrease of tubulin acetylation levels”.
